Assay results as given in publication PMC10986598, “Investigating inhibitors of 1-deoxy-D-xylulose 5-phosphate synthase in a mouse model of UTI” (Microbiology Spectrum, 2024).
Where two headings read alike, the source gives them in different places.

Tests used:
UPEC strain CFT073 = assay: In vivo ascending UTI assay (prophylaxis); set-up: species or system Escherichia coli in C3H/HeN mice; details: gentamicin 10 mg/kg IP 30 min prior to inoculation
Protocol: Female mice were injected subcutaneously in the flank with 2.5 mg of MPA (150 mg/mL, diluted in sterile saline) 7 days prior to inoculation ([60]). Mice were dosed vaginally with 30 µL of sterile saline lavage fluid immediately prior to inoculation. The fluid was collected, placed on a slide, heat fixed, Gram stained, and assessed to determine the estrous cycle stage of each mouse as previously described ([61]).
Six-week-old female C3H/HeN mice were inoculated with UPEC as previously described ([28]). Briefly, UPEC strain CFT073 (ATCC designation: BAA-2503) was streaked on LB agar from a frozen glycerol stock and grown overnight at 37°C. Following overnight incubation, three to five colonies were picked and subcultured into 10 mL of sterile LB, and the culture was incubated statically overnight at 37°C. The culture was diluted 1:1,000 (25 µL of culture into 25 mL of sterile LB) and incubated statically for 24 h at 37°C to promote the growth of bacteria with type-1 pili expression. The resulting 25 mL inoculum was centrifuged at 4,200 × g for 20 min at 4°C. The supernatant was removed, and the cell pellet was resuspended in 10 mL of sterile PBS. The OD600 was adjusted to 1.0 by the addition of PBS to give a cell density of approximately 4 × 10^7 to 1 × 10^8 CFUs per 50 µL, the volume of the inoculum. Cell counts were validated by plating a dilution of the inoculum solution and enumerating following overnight incubation.
Urinary catheters were assembled by threading 30G needles with 0.28 mm inner diameter polyethylene tubing to create a soft tip. Catheter tips were dipped in lubricant immediately before inoculation. During catheterization, urine was aspirated from the bladder prior to inoculation with 50 µL of UPEC inoculum, prepared as described above. Mice were housed with their drug-dosed cohort and dosed intraperitoneally according to each experiment’s dosing regimen as shown in the figures. Dosing regimen for BAP trial 1 (Fig. 7b)consisted of IP administration of BAP (300 mg/kg) 30 min before inoculation; dosing regimen for BAP trial 2 (Fig. 7c) consisted of IP administration of BAP (600 mg/kg) 30 min before inoculation followed with IP doses of BAP (300 mg/kg) at 1 and 3 hpi; dosing regimen for BAP trial 3 and the pro-hpAP trial (Fig. 7d) consisted of IP administration of BAP (600 mg/kg) or pro-hpAP (60 mg/kg) 30 min before inoculation followed with IP doses of BAP (300 mg/kg) or pro-hpAP (30 mg/kg) at 1, 3, and 24 hpi; dosing regimen 4 (Fig. S3) consisted of IP administration of BAP (600 mg/kg) 30 min before inoculation followed with IP doses of BAP (300 mg/kg) at 1, 3, 6, 10, 22, 26, and 30 hpi. Gentamicin diluted in sterile PBS was used as a positive control and was administered to mice at 10 mg/kg IP 30 min prior to inoculation in all experiments.
After 48 h, mice were anesthetized by isoflurane inhalation and sacrificed by cervical dislocation. Bladders were harvested, added to 1 mL sterile PBS, and homogenized with a hand-held homogenizer in a biosafety cabinet. Tissue homogenates were serially-diluted (five 10-fold dilutions), and 100 µL of each dilution was plated onto LB plates and enumerated after a 24 h incubation at 37°C, yielding an effective detection range of 1 × 10^2–150 × 10^8 CFU/mL. In a few cases, bacterial counts fell below the lower limit of detection or above the upper limit of detection and are reported as 0 CFU/mL or conservatively 200 × 10^8 CFU/mL, respectively.

[1] = In vivo PK studies in CD-1 mice; details: for AUC: pro-hpAP 30 mg/kg IP; for Cmax / AUC(0-t): ip, 30 mg/kg; for AUC(0-t): read-out: AUC0-t
Protocol: For pharmacokinetic analysis, both male (n = 2) and female (n = 2) CD1 mice were dosed with either BAP or pro-hpAP by intraperitoneal (IP) route or administration (100 mg/kg) and (30 mg/kg), respectively. Blood and tissue samples were collected at predetermined time points (0–6 h post-dose). Plasma was generated from blood by low-speed centrifugation (3,000 × g), and all samples were stored at −80°C until bioanalysis.
Non-compartmental-analysis module in WinNonlin was used to assess blood pharmacokinetic parameters including max concentrations (Cmax), time to Cmax (Tmax), area under the curve (AUC), area extrapolated to infinity (AUC0–∞), and terminal half-life (t1/2). In addition, the tissue penetration index was measured as the ratio of AUCtissue to AUCplasma.
To quantify BAP and pro-hpAP, methanol containing 0.5 µM losartan as an internal standard was added 5 µL/µL plasma or 5 µL/mg tissue in microcentrifuge tubes. Tissue was further homogenized using a Spex Geno/Grinder with stainless steel beads for 3 min at 1,500 RPM. Homogenates from untreated animals were spiked with the analytes from 100 to 0.01 nmol/g tissue by serial dilution to generate a standard curve. Plasma and tissue homogenates were then vortexed and centrifuged (16,000 × g for 5 min at 4°C) to precipitate proteins. Supernatants were transferred to a 96 well plate and 2 µL was injected on a Accela 1250 LC coupled to a Vantage triple quadrupole mass spectrometer (Thermo Fisher Scientific Inc., Waltham MA). Samples were separated on an Agilent EclipsePlus C18 RRHD (1.8 µm) 2.1 × 100 mm column with mobile phases consisting of water +0.1% formic acid (A), and acetonitrile + 0.1% formic acid (B). […] Samples were introduced to the source through heated ion spray with the capillary temperature setting at 350°C, spray voltage of 4 kV and S-Lens RF of 51. Nitrogen was used as the sheath and auxiliary gas with the settings of 50 and 1 arbitrary units, respectively. For BAP, the instrument was operated in negative ion mode scanning for transitions of 179.1 > 63.1, 79.1 (BAP) and 420.9 > 179.1, 127.0 (losartan) which were acquired with collision energies setting of 17; 55 and 25; 41 CE, respectively. For pro-hpAP, the instrument was operated in positive ion mode scanning for transitions of 346.2 to 86.1 and 143.2 (pro-hpAP) and 422.9 to 207.1 and 180.1 (losartan) which were acquired with collision energies setting of 29; 17 and 37; 22 CE, respectively. Peaks were quantified with Xcalibur software.

[2] = both sexes, CD1, mouse, in vivo, Bladder, single 30 mg/kg IP dose of pro-hpAP, analyte = labelled substance
[3] = both sexes, CD1, mouse, in vivo, Brain, single 30 mg/kg IP dose of pro-hpAP, analyte = labelled substance
[4] = both sexes, CD1, mouse, in vivo, Kidney, single 30 mg/kg IP dose of pro-hpAP, analyte = labelled substance

## CNC(C)C1CCC(N)C(OC2C(N)CC(N)C(OC3OCC(C)(O)C(NC)C3O)C2O)O1 (centres unmarked) [gentamicin, reference compound]
UPEC strain CFT073
  mice with bacterial burden below the limit of detection (LOD): 5 of 8

## C#CCCOP(=O)(O)C(C)=O [hpAP, homopropargyl acetylphosphonate]
[1]; bladder, analyte = labelled substance (pro-hpAP or released hpAP)
  AUC: 366 ± 31 nmol·h/g
[1]; [2]
  Cmax: 586 ± 78 µM
  AUC(0-t): 366 ± 31 µM·h
[1]; [3]
  Cmax: 2.18 ± 0.16 µM
  AUC(0-t): 1.87 ± 0.21 µM·h
[1]; [4]
  Cmax: 50.2 ± 7.7 µM
  AUC(0-t): 16.3 ± 1.4 µM·h
[1]; both sexes, CD1, mouse, in vivo, Plasma, single 30 mg/kg IP dose of pro-hpAP, analyte = labelled substance (pro-hpAP or released hpAP)
  Cmax: 110 ± 11 µM
[1]; both sexes, CD1, mouse, in vivo, Plasma, single 30 mg/kg IP dose of pro-hpAP, analyte = labelled substance
  AUC(0-t): 38.8 ± 2.7 µM·h
[1]; both sexes, CD1, mouse, in vivo, Kidney, single 30 mg/kg IP dose of pro-hpAP, analyte = labelled substance, read-out: Tmax
  Tmax: 15 min
[1]; both sexes, CD1, mouse, in vivo, plasma, analyte = labelled substance, read-out: AUC
  AUC: 38.8 ± 2.7 µM·h
[1]; brain, analyte = labelled substance
  AUC: 1.87 ± 0.21 nmol·h/g
[1]; kidney, analyte = labelled substance
  AUC: 16.3 ± 1.4 nmol·h/g
